According to publication PMC12951568, “Identifying Structural Factors Governing the Photodynamic Activity of Phthalocyanines” (Journal of Medicinal Chemistry, 2026):
Read-outs that look alike come from different tables or passages of the source.

How the values were obtained:
[1] = biological target: bovine serum albumin (BSA) (Bos taurus, UniProt P02769); experiment: Interaction with bovine serum albumin (absorption and emission spectra in PBS); format: binding; conditions: 1 μM Pc in PBS, BSA 17.5, 35 and 100 μM
[2] = Quantum yield of singlet oxygen production, comparative method with DPBF scavenger; format: physicochemical; conditions: in DMF, ZnPc as reference
Description: Eight μL of the 100 μM stock solution of the dye in DMF (or DMF + water or water; see above) was added. A xenon lamp (100 W, ozone free XE DC short arc lamp, New port) was used to irradiate the sample while stirring. The incident light was filtered through a water filter (6 cm) and cut off filter OG530 eliminating heat and light under 523 nm, respectively. […] The decrease of DPBF in solution with irradiation time was monitored at 415 nm. The values of ΦΔ of the dyes were calculated by the following equation: φΔS=φΔ[…] is the slope of the plot of the dependence of ln([…] 0 and A t being the absorbances of the DPBF at 415 nm before irradiation and after irradiation time t, respectively. I aT is the total amount of light absorbed by the dye sample. Superscripts R and S indicate the reference and sample, respectively. I aT is calculated as a sum of intensities of the absorbed light I a at wavelengths from 523 to 850 nm (step 0.5 nm). Light under 523 nm is completely filtered by an OG530 filter, and light above 850 nm is not absorbed by the studied dye sample. I a at a given wavelength is calculated using Beer-Lambert'[…]) where I 0 is transmittance of the filter at the given wavelength and A is the absorbance of the dye at this wavelength. All experiments were performed three times, and the data presented is the mean value of the three obtained results with estimated error ± 10%.

[3] = Fluorescence quantum yield, comparative method; format: physicochemical; conditions: in DMF; ZnPc as reference
Description: The fluorescence quantum yields (ΦF) were determined by a comparative method with ZnPc as the reference (ΦF = 0.32 in THF). The ΦF values were calculated using the following formula: ϕFS=ϕFR(F^S/F^R)(1−10^−A^R/1−10^−A^S)(η^S/η^R)^2 where F is the integrated area under the emission spectrum and A is the absorbance at the excitation wavelength. Superscripts R and S indicate the reference and sample, respectively. η stands for the refractive index of the solvent. Absorption in the Q-band was kept below 0.05 to eliminate the inner filter effect. Excitation wavelengths were the same as those used for emission spectra (see above). The emission wavelengths were set to their emission maxima to avoid exceeding the detector limit with stimated error ± 15%.

[4] = Absorption and fluorescence emission spectra in DMF; format: physicochemical; conditions: for ε, extinction coefficient / λA, absorption maximum in the Q-band / λF, fluorescence emission maximum: in DMF
Description: An absorption spectrum of 2.475 mL of solvent (water, DMF, or PBS) was taken (i.e., absorption spectrum of baseline); then, 25 μL of stock solution was added to reach the final concentration of 1 μM in the cuvette, and the absorption and emission spectra were taken. Baseline of the solvent was subtracted from the obtained absorption spectrum to get the final absorption spectrum of the sample.

[5] = system: HeLa (human cervical carcinoma); conditions: ref number not given, cited from earlier work
[6] = Log P, partition between n-octanol and PBS; format: physicochemical
Description: 400 μL portion of n-octanol and 400 μL of PBS buffer were mixed in a plastic Eppendorf vial. Then, 20 μL of the 100 μM stock solution of the sample (see above) was added to this mixture, vortexed for 5 min at rt, and then centrifuged for 10 min (10 000 rpm, rt). 50 μL of each of these layers was taken into 2.5 mL of DMF in a quartz cuvette, and their emission spectra (excitation wavelengths in Table ) were recorded. The log P value was then computed using the area under the curve of the emission spectra of n-octanol (F oct) and PBS buffer (F PBS) layers as follows: logP=log(Foct/FPBS) Triplicate measurements were performed, and the data reported are the mean of the obtained results.

[7] = Fluorescence lifetime in DMF; format: physicochemical
Source text: 1 Photophysical Data of Investigated Derivatives in DMF ^a | column: τF1/ns; τF2/ns

[8] = system: MCF-7 (human breast adenocarcinoma); experiment: Photodynamic activity (phototoxicity, neutral red uptake) on MCF-7; format: cell-based; conditions: 12 h incubation, Xe-lamp 15 min, λ > 570 nm, 11.2 J/cm^2; mean ± SD; t.w. = this work
Description: (§1) Detailed in vitro studies involving subcellular localization and determination of the EC50 in three different cell lines (human cervical carcinoma–HeLa, human breast adenocarcinoma–MCF-7, and human skin melanoma–SK-MEL-28) were performed. A broadband light source (ozone-free 450 W Xe-lamp, Newport) equipped with the long-pass filter Schott OG570 was used (12.4 mW/cm^2, 15 min, 11.2 J/cm^2).
(§2) For the cytotoxicity experiments (phototoxicity), cells were seeded at 100 μL per well into 96-well plates (TPP, Switzerland) at a density of 7.5 × 10^3 (HeLa) or 1.0 × 10^4 (MCF-7 and SK-MEL-28) cells per well. Cells were left to grow for 24 h (until they reached confluency) in a controlled environment of a CO2 incubator (37 °C, 5% CO2 atmosphere, constant high humidity). Subsequently, studied compounds were added in a wide concentration range and incubated with the cells for 12 h. Cells were washed; fresh cell culture medium was added, and the cells were irradiated using a 450 W Xe lamp (Newport, USA). The lamp was equipped with a long pass filter (Newport OG570) and an 8 cm water filter (λ > 570 nm, 12.4 mW/cm^2, 15 min, 11.2 J/cm^2). Cellular viability was assessed after an additional 24 h by the neutral red (NR; Sigma, Merck, USA) uptake assay. At least three independent experiments, each in triplicate, were performed. The soluble NR was measured at λ = 540 nm using a Tecan Infinite 200 M plate reader (Tecan, Austria). The viability of each experimental group was expressed as the percentage of the untreated cells (100% viability) after subtraction of the signal from cells treated with a lethal dose of hydrogen peroxide (0% viability). […] EC50 values were calculated, and graphs were created by using GraphPad Prism 10.3.1 (Graph Pad software, USA).

[9] = system: SK-MEL-28 (human skin melanoma); experiment: Photodynamic activity (phototoxicity, neutral red uptake) on SK-MEL-28; format: cell-based; conditions: 12 h incubation, Xe-lamp 15 min, λ > 570 nm, 11.2 J/cm^2; mean ± SD; t.w. = this work
Description: as §1, §2

[10] = partition coefficient between 1-octanol and PBS

Sequence of bovine serum albumin (BSA) (P02769 25-607): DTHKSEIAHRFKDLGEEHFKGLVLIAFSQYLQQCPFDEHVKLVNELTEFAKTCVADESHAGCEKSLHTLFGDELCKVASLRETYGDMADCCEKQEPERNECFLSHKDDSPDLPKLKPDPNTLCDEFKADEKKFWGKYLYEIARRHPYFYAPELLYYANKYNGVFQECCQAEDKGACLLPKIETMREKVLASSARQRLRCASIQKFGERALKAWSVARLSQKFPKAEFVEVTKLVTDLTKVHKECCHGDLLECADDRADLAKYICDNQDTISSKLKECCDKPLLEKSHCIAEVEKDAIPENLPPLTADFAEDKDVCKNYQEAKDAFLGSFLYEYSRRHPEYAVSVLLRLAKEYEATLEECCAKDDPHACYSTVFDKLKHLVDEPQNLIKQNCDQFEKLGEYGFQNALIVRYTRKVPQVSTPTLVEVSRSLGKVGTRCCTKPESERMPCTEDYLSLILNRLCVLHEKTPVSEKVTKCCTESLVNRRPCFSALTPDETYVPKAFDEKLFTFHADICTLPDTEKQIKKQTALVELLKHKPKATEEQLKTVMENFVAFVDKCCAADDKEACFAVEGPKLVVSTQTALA

Structure (SMILES): O=C([O-])c1cc(C(=O)[O-])cc(-c2nc3c(nc2-c2cc(C(=O)[O-])cc(C(=O)[O-])c2)C2=Nc4c5nc(-c6cc(C(=O)[O-])cc(C(=O)[O-])c6)c(-c6cc(C(=O)[O-])cc(C(=O)[O-])c6)nc5c5[n]4[Zn][n]4c(c6nc(-c7cc(C(=O)[O-])cc(C(=O)[O-])c7)c(-c7cc(C(=O)[O-])cc(C(=O)[O-])c7)nc6c4=NC4=NC(=N5)c5nc(-c6cc(C(=O)[O-])cc(C(=O)[O-])c6)c(-c6cc(C(=O)[O-])cc(C(=O)[O-])c6)nc54)=NC3=N2)c1.[Na+].[Na+].[Na+].[Na+].[Na+].[Na+].[Na+].[Na+].[Na+].[Na+].[Na+].[Na+].[Na+].[Na+].[Na+].[Na+] [A5Zn]
- Interaction with BSA: disaggregation/monomerization and changes in absorption and fluorescence emission spectra [1]: slight bathochromic shift in the Q-band accompanied by partial quenching of the excited states
- quenching of excited states upon BSA addition (decrease in Q-band maximum and fluorescence intensity) [1]: significant
- ΦΔ, quantum yield of singlet oxygen production [2]: 0.21
- ΦF, fluorescence quantum yield [3]: 0.03
- ε, extinction coefficient [4]: 138 740 M^–1cm^–1
- λA, absorption maximum in the Q-band [4]: 659 nm
- λF, fluorescence emission maximum [4]: 675 nm
- EC50 ([5]; 12 h incubation, Xe-lamp 15 min, λ > 570 nm, 11.2 J/cm^2, mean ± SD, determined previously under the same conditions at the same workplace and published, read-out: EC50 (nM) HeLa): 5700 ± 1100 nM
- Log P [6, 10]: –3.27

Structure (SMILES): O=S(=O)([O-])c1ccc(Oc2ccc3c(c2)C2=Cc4c5ccc(Oc6ccc(S(=O)(=O)[O-])c7cccnc67)cc5c5[n]4[Zn][n]4c(c6ccc(Oc7ccc(S(=O)(=O)[O-])c8cccnc78)cc6c4=CC3=N2)=CC2=NC(=C5)c3ccc(Oc4ccc(S(=O)(=O)[O-])c5cccnc45)cc32)c2ncccc12.[Na+].[Na+].[Na+].[Na+] [A6Zn]
- Interaction with BSA: disaggregation/monomerization and changes in absorption and fluorescence emission spectra [1]: partial
- τF1, fluorescence lifetime (relative amplitude in brackets) [7]: 3.14 ns
- ΦΔ, quantum yield of singlet oxygen production [2]: 0.58
- ΦF, fluorescence quantum yield [3]: 0.28
- ε, extinction coefficient [4]: 122 420 M^–1cm^–1
- λA, absorption maximum in the Q-band [4]: 681 nm
- λF, fluorescence emission maximum [4]: 692 nm
- Log P [6, 10]: –2.89

Structure (SMILES): O=S(=O)([O-])c1ccc(Oc2cccc3c2C2=Cc4c5cccc(Oc6ccc(S(=O)(=O)[O-])c7cccnc67)c5c5[n]4[Zn][n]4c(c6cccc(Oc7ccc(S(=O)(=O)[O-])c8cccnc78)c6c4=CC3=N2)=CC2=NC(=C5)c3cccc(Oc4ccc(S(=O)(=O)[O-])c5cccnc45)c32)c2ncccc12.[Na+].[Na+].[Na+].[Na+] [A8Zn]
- Interaction with BSA: disaggregation/monomerization and changes in absorption and fluorescence emission spectra [1]: complete
- ΦΔ, quantum yield of singlet oxygen production [2]: 0.69
- EC50 [8]: 2470 ± 810 nM
- EC50 [9]: 1200 ± 280 nM
- ΦF, fluorescence quantum yield [3]: 0.26
- ε, extinction coefficient [4]: 197 610 M^–1cm^–1
- λA, absorption maximum in the Q-band [4]: 696 nm
- λF, fluorescence emission maximum [4]: 708 nm
- Log P [6, 10]: –3.64

Structure (SMILES): C[n+]1cccc(Oc2ccc3c(c2)C2=NC3=Nc3c4cc(Oc5ccc[n+](C)c5)ccc4c4[n]3[Zn][n]3c(c5ccc(Oc6ccc[n+](C)c6)cc5c3=NC3=NC(=N4)c4cc(Oc5ccc[n+](C)c5)ccc43)=N2)c1 [C5Zn]
- Interaction with BSA: disaggregation/monomerization and changes in absorption and fluorescence emission spectra [1]: slight decrease in the absorption band (without a shift in the spectrum) but was accompanied by a slight increase in the fluorescence intensity

Structure (SMILES): Cc1cc(OCc2cn(CCOCCOCCO)nn2)c(Oc2cc3c(cc2Oc2c(OCc4cn(CCOCCOCCO)nn4)cc(C)cc2OCc2cn(CCOCCOCCO)nn2)C2=Nc4c5cc(Oc6c(OCc7cn(CCOCCOCCO)nn7)cc(C)cc6OCc6cn(CCOCCOCCO)nn6)c(Oc6c(OCc7cn(CCOCCOCCO)nn7)cc(C)cc6OCc6cn(CCOCCOCCO)nn6)cc5c5[n]4[Zn][n]4c(c6cc(Oc7c(OCc8cn(CCOCCOCCO)nn8)cc(C)cc7OCc7cn(CCOCCOCCO)nn7)c(Oc7c(OCc8cn(CCOCCOCCO)nn8)cc(C)cc7OCc7cn(CCOCCOCCO)nn7)cc6c4=NC4=NC(=N5)c5cc(Oc6c(OCc7cn(CCOCCOCCO)nn7)cc(C)cc6OCc6cn(CCOCCOCCO)nn6)c(Oc6c(OCc7cn(CCOCCOCCO)nn7)cc(C)cc6OCc6cn(CCOCCOCCO)nn6)cc54)=NC3=N2)c(OCc2cn(CCOCCOCCO)nn2)c1 [N6Zn]
- τF1, fluorescence lifetime (relative amplitude in brackets) [7]: 1.04 (3%) ns
- τF2, fluorescence lifetime (relative amplitude in brackets) [7]: 3.17 (97%) ns
- ΦΔ, quantum yield of singlet oxygen production [2]: 0.46
- ΦF, fluorescence quantum yield [3]: 0.26
- ε, extinction coefficient [4]: 237 520 M^–1cm^–1
- λA, absorption maximum in the Q-band [4]: 681 nm
- λF, fluorescence emission maximum [4]: 690 nm
- EC50 ([5]; same irradiation conditions, previously published per Table 2, read-out: EC50 (HeLa)): 69700 nM

Structure (SMILES): Cc1cc(OCc2cn(CCOCCOCCO)nn2)c(Oc2nc3c(nc2Oc2c(OCc4cn(CCOCCOCCO)nn4)cc(C)cc2OCc2cn(CCOCCOCCO)nn2)C2=Nc4c5nc(Oc6c(OCc7cn(CCOCCOCCO)nn7)cc(C)cc6OCc6cn(CCOCCOCCO)nn6)c(Oc6c(OCc7cn(CCOCCOCCO)nn7)cc(C)cc6OCc6cn(CCOCCOCCO)nn6)nc5c5[n]4[Zn][n]4c(c6nc(Oc7c(OCc8cn(CCOCCOCCO)nn8)cc(C)cc7OCc7cn(CCOCCOCCO)nn7)c(Oc7c(OCc8cn(CCOCCOCCO)nn8)cc(C)cc7OCc7cn(CCOCCOCCO)nn7)nc6c4=NC4=NC(=N5)c5nc(Oc6c(OCc7cn(CCOCCOCCO)nn7)cc(C)cc6OCc6cn(CCOCCOCCO)nn6)c(Oc6c(OCc7cn(CCOCCOCCO)nn7)cc(C)cc6OCc6cn(CCOCCOCCO)nn6)nc54)=NC3=N2)c(OCc2cn(CCOCCOCCO)nn2)c1 [N7Zn]
- τF1, fluorescence lifetime (relative amplitude in brackets) [7]: 0.74 (5%) ns
- τF2, fluorescence lifetime (relative amplitude in brackets) [7]: 2.45 (95%) ns
- ΦΔ, quantum yield of singlet oxygen production [2]: 0.58
- ΦF, fluorescence quantum yield [3]: 0.18
- ε, extinction coefficient [4]: 195 490 M^–1cm^–1
- λA, absorption maximum in the Q-band [4]: 629 nm
- λF, fluorescence emission maximum [4]: 641 nm
- blueshift of the Q-band vs corresponding Pc analogue ([4]; pyrazine analogs vs A4Zn and N6Zn, DMF): 35 nm
- Log P [6]: –1.60
